Data as given in US4486429A, “Amino derivatives of 4-phenyl 4-oxobuten-2-oic acid, pharmaceutical compositions containing them, and methods for preparing and therapeutically using them” (Roussel Uclaf, priority 1981, dated 1984).

Columns and labels:
stomach ulcers = assay: Determination of the anti-ulcer activity (stress ulcer, rats); format: in vivo; conditions: female rats, stress and cold (8° C., two hours), dose 10 mg/kg by esophageal tube two hours before
Method: (2) Determination of the anti-ulcer activity
The technique consists in inducing stomach ulcers by stress in rats (stress and cold). The technique used is described by E. C. SENAY and R. J. LEVINE, Proc. Soc. Exp. Biol. 124, 1221 (1967).
Female rats weighing about 150 g (5 animals per lot) which have fasted for 48 hours with water ad libitum and glucose solution for 8 hours were used. By an esophageal tube, the animals were administered the test compound, or a solution of 0.5% carboxymethyl cellulose solution for the control animals. Two hours later, the animals were bundled in a jacket of netting. Their paws were bound and the entire unit was placed in a refrigerator at 8° C. for two hours. The rats were released and killed with ether.
Their stomachs were removed, opened along the greater curvature and examined by binocular magnifier. The seriousness of ulceration was clasified from 0 to 3 for each stomach.
For each lot of rats the average intensity of the ulcerations was calculated. The degree of ulceration for control and test animals was determined and the variation expressed in percentage.

[1] = Determination of the acute toxicity (LD50, oral, mice); conditions: mouse, in vivo, oral administration
Method: (3) Determination of the acute toxicity
The LD50 was evaluated after oral administration of the product to mice.

gastric secretions = assay: Determination of the anti-gastric secretion activity (Shay technique, pylorus ligation, rats); format: in vivo; conditions: pylorus ligated, dose 10 mg/kg, intraduodenal, 3 hours, total acidity of gastric juice
Method: (1) Determination of the anti-gastric secretion activity
The technique used is described by H. SHAY et al. in Gastroenterology 5, 43, 1945.
Male rats were used having a weight of about 200 g each (10 animals per lot), and kept without food for 48 hours but enjoying ad libitum 8% glucose solution. After the rats were slightly anesthetized with ether the pylorus of each was ligated. At the end of the operation, the product to be tested was administered intraduodenally in different doses or, for the control animals 0.5% carboxymethyl cellulose solution was administered, whereupon the abdominal incision is sutured.
Three hours later, the animals were sacrificed and their stomachs removed after ligating the esophagus. The gastric juice was removed and centrifuged. The volume of gastric juice obtained was then measured and the total acidity of the gastric juice was determined by titrating a […] of gastric juice to a pH of 7 by means of 1/10 N aqueous sodium hydroxide solution.
The percentages of variation in total acidity of the gastric secretions between control and test animals were calculated.

Row | SMILES | Anti-ulcer activity (% variation referred to the controls): Ulceration (stomach ulcers) [%] | LD50 [1] [mg/kg] | Anti-secretion activity (% variation referred to the controls): Acid Concentration (gastric secretions) [%]
1 | CCOC(=O)Nc1ccc(C(=O)/C=C/C(=O)O)cc1 [Example 1, (E) 4-(4-carbethoxyaminophenyl)-4-oxobuten-2-oic acid] | -41 | > 1000 | -55
2 | CN(C)c1ccc(C(=O)/C=C/C(=O)O)cc1 [Example 4, (E) 4-(4-N,N-dimethylaminophenyl) 4-oxobuten-2-oic acid] | -61 | 750 | -58
